Laboratory results taken from publication PMC6255327, “Design of Antimicrobially Active Small Amphiphilic Peptide Dendrimers” (Molecules, 2009).
Where a name gives a salt, the structure may show the parent alone.

Assays:
E.coli ATCC 25922 = format: cell-based, Escherichia coli; settings: ATCC 25922, 24 h
Experimental: (§1) Bacteria. Staphylococcus aureus ATCC 25923, Pseudomonas aeruginosa ATCC 27853, Escherichia coli ATCC 25922 and Staphylococcus aureus ATCC 43300 were cultivated on tryptone - soy agar (TSA; Oxoid). Klebsiella pneumoniaeATCC 13882, Bordetella bronchiseptica ATCC 4617, Acinetobacter baumannii ATCC 19606 were cultivated onto nutrient agar (Difco). Escherichia coli ATCC BAA-198 was cultivated on TSA with ceftazidime (10 µg/mL or 15.7 μM; Sigma). All strains were incubated during 24 hrs at 37 °C.
(§2) Medium. Mueller – Hinton Broth (Oxoid) was supplemented with cations: 12.5 mg Mg ^++/L and25 mg Ca^++/L. The pH of the medium after sterilization is between 7.2 and 7.4 [cation–adjusted Mueller – Hinton Broth” (CAMHB)].
(§3) Reference method. Broth microdilution susceptibility test was performed as described in […] reference method M7-A7 (2). A series of the twofold dendrimers dilutions in DMSO and twofold polymyxin B and penicillin G dilutions in CAMHB were diluted […] with CAMHB. Aliquots (95 µL) were dispensed into microdilution sterile plates (Mar-Four). Then, bacteria inoculum (5 µL) containing 5 × 10^4 CFU/mL were added. The final concentration of dendrimers ranged from 128 to 2 µg/mL [or 105 to 1.6 μM for an average molecular mass for 7 series (1213) and 61 to 0.9 μM for an average molecular mass for 10 series(2,103)], polymyxin B and penicillin G from 8 – 0.15 µg /mL (or 5.8 to 0.1 μM and 21.5 to 0.4 μM, respectively for polymyxin B and penicillin G), all in twofold dilution steps. The plates were incubated at 35 °C and read after 18 or 24 hours depending on bacterial strain. MICs (Minimal Inhibitory Concentration) was defined as the lowest drug concentration that reduced growth by 100%.

E. coli ATCC BAA-198 = format: cell-based, Escherichia coli; settings: ATCC BAA-198, 24 h
Experimental: as §1, §2, §3

A. baumani ATCC 19606 = format: cell-based, Acinetobacter baumannii; settings: ATCC 19606, 24 h
Experimental: as §1, §2, §3

C. krusei ATCC 6258 = assay: microbe, parasite or virus in culture; format: cell-based, Candida krusei; settings: ATCC 6258, 48 h, pH 7; read-out: Minimal inhibitory concentration (MIC)
Experimental: (§4) Yeasts: Candida albicans ATCC 90028, Candida parapsilosis ATCC 22019 and Candida krusei ATCC 6258 were cultivated onto Sabouraud dextrose agar (Difco) during 24 hrs at 35 °C.
(§5) Medium: RPMI – 1640 (Sigma) supplemented with 0.2% (wt/vol) glucose, 0.3 g/L L-glutamine, 0.0053 g/L phenol red, buffered with morpholinopropanesulfonic acid (MOPS; Sigma) at a final concentration of 0.165 M and adjusted to pH 7.0 was prepared.
(§6) Reference Method: The broth microdilution susceptibility test was performed as described in Clinical and Laboratory Standards Institute (CLSI) reference method M27 – A2 (1). A series of the twofold dendrimers and amphotericin B dilutions in DMSO were diluted 1:49 with RPMI.

K. pneumoniae ATCC 13882 = format: cell-based, Klebsiella pneumoniae; settings: ATCC 13882, 24 h
Experimental: as §1, §2, §3

[1] = test system: B. bronchiseptica ATCC 4617; format: cell-based, Bordetella bronchiseptica; settings: ATCC 4617, 24 h
Experimental: as §1, §2, §3

S. aureus ATCC 25923 = assay: microbe, parasite or virus in culture; format: cell-based, Staphylococcus aureus; settings: ATCC 25923, 24 h, pH 7.2; read-out: Minimal inhibitory concentration (MIC)
Experimental: as §1, §2, §3

[2] = test system: C. parapsilosis ATCC 22019; format: cell-based, Candida parapsilosis; settings: ATCC 22019, 48 h, pH 7
Experimental: as §4, §5, §6

P. aeruginosa ATCC 27853 = format: cell-based, Pseudomonas aeruginosa; settings: ATCC 27853, 24 h
Experimental: as §1, §2, §3

S. aureus ATCC 43300 = format: cell-based, Staphylococcus aureus; settings: ATCC 43300, 24 h
Experimental: as §1, §2, §3

C. albicans ATCC 90028 = format: cell-based, Candida albicans; settings: ATCC 90028, 48 h, pH 7
Experimental: as §4, §5, §6

human red blood cells = assay: Hemolysis assay; format: cell-based; settings: at a concentration of 400 μM, 1% hematocrit in PBS pH 7.4, 30 min at 23 °C, absorbance at 540 nm
Experimental: Dendrimer induced hemolysis was observed as previously reported. Briefly, serum free human red blood cells obtained from the Institute of Hematology and Transfusion Medicine in Warsaw, were suspended in phosphate buffered saline (PBS, pH 7.4). Prepared suspension of 1% hematocrit was incubated with serial concentration of dendrimers for 30 min at 23 °C. After centrifugation (1,000 rpm, 5 min) the absorbance of supernatant was measured at 540 nm (Jasco 630, Japan). A value of 100% hemolysis was determined by incubation of erythrocytes with double-distilled water (30 min at 23^o). In a control experiment, cells were incubated in buffer without peptide and absorbance at 540 nm value was used as a blank.
A - absorbance of the samples incubated with dendrimers; Ab – absorbance of the blank samples; A100% - absorbance of the reference; Ac - absorbance of red blood cells in PBS, hematocrit 1%.

SMILES | Minimal inhibitory concentration (MIC) (E.coli ATCC 25922) [µM] | Minimal inhibitory concentration (MIC) (E. coli ATCC BAA-198) [µM] | Minimal inhibitory concentration (MIC) (A. baumani ATCC 19606) [µM] | MIC (C. krusei ATCC 6258) [µM] | Minimal inhibitory concentration (MIC) (K. pneumoniae ATCC 13882) [µM] | Minimal inhibitory concentration (MIC) [1] [µM] | MIC (S. aureus ATCC 25923) [µM] | Minimal inhibitory concentration (MIC) [2] [µM] | Minimal inhibitory concentration (MIC) (P. aeruginosa ATCC 27853) [µM] | Minimal inhibitory concentration (MIC) (S. aureus ATCC 43300) [µM] | Minimal inhibitory concentration (MIC) (C. albicans ATCC 90028) [µM] | toxicity (hemolysis) (human red blood cells) [%]
NCCCC[C@H](NC(=O)OCc1ccccc1Cl)C(=O)N[C@@H](Cc1ccccc1)C(=O)NCCCN(CCCNC(=O)[C@H](Cc1ccccc1)NC(=O)[C@H](CCCCN)NC(=O)OCc1ccccc1Cl)C[C@@H](CO)N(CCCNC(=O)[C@H](Cc1ccccc1)NC(=O)[C@H](CCCCN)NC(=O)OCc1ccccc1Cl)CCCNC(=O)[C@H](Cc1ccccc1)NC(=O)[C@H](CCCCN)NC(=O)OCc1ccccc1Cl [Compound 10a, N,N',N,N’-tetrakis[(N^α-2-chlorobenzyloxycarbonyl)-L-lysil-L-phenylalanyl-3-aminopropyl]-L-α,δ-diaminopropanol hexahydrochloride] | 7.3 | 6.9 | 13.8 | 6.8 | >55 | 3.4 | 1.7 | 6.8 | 30.2 | 3.4 | 6.8 | –
NCCCC[C@H](NC(=O)OCc1ccccc1Cl)C(=O)NCCCN[C@@H](CCN(CCCNC(=O)[C@H](CCCCN)NC(=O)OCc1ccccc1Cl)CCCNC(=O)[C@H](CCCCN)NC(=O)OCc1ccccc1Cl)C(=O)NCc1ccccc1 [Compound 7f, N,N,N’-tris[(N^α-2-chlorobenzyloxycarbonyl)-L-lysil-3-aminopropyl]-L-diaminobutyro benzylamide pentahydrochloride] | 48 | >89 | >88 | 44 | >88 | 11 | 11.7 | 89 | 48 | 10.3 | >89 | –
NCCCC[C@H](NC(=O)OCc1ccccc1Cl)C(=O)NCCCN[C@@H](CCCN(CCCNC(=O)[C@H](CCCCN)NC(=O)OCc1ccccc1Cl)CCCNC(=O)[C@H](CCCCN)NC(=O)OCc1ccccc1Cl)C(=O)NCc1ccccc1 [Compound 7g, N,N,N’-tris[(N^α-2-chlorobenzyloxycarbonyl)-L-lysil-3-aminopropyl]-L-ornithine benzylamide penta-hydrochloride] | 21.8 | 10.9 | 5.4 | 5.4 | 87 | 2.7 | 10.9 | 5.4 | 21.8 | 10.9 | 10.9 | 32
NCCCC[C@H](NC(=O)OCc1ccccc1Cl)C(=O)N[C@@H](Cc1ccccc1)C(=O)NCCCN(CCCNC(=O)[C@H](Cc1ccccc1)NC(=O)[C@H](CCCCN)NC(=O)OCc1ccccc1Cl)CC[C@@H](CO)N(CCCNC(=O)[C@H](Cc1ccccc1)NC(=O)[C@H](CCCCN)NC(=O)OCc1ccccc1Cl)CCCNC(=O)[C@H](Cc1ccccc1)NC(=O)[C@H](CCCCN)NC(=O)OCc1ccccc1Cl [Compound 10b, N,N',N,N’-tetrakis[(N^α-2-chlorobenzyloxycarbonyl)-L-lysil-L-phenylalanyl-3-aminopropyl]-L-α,δ-diaminobutanol hexahydrochloride] | 7.3 | 6.9 | 13.8 | 6.9 | >55 | 3.4 | 1.3 | 6.9 | 47 | 7.3 | 6.9 | –
